# Measurements as given in PubChem BioAssay AID1259407 (Chemical Carcinogenesis Research Information System (CCRIS), 2018).
# Active and inactive are the calls of the source. The rule behind the calls is not given here.
# System: CCRIS mutagenicity, Ames/micronucleus/aberration tests
# Test: CCRIS mutagenicity studies
# [1] = Test System: AMES SALMONELLA TYPHIMURIUM, Strain/Indicator: TA98, Metabolic Activation: NONE, Method: STANDARD PLATE
# [2] = Test System: AMES SALMONELLA TYPHIMURIUM, Strain/Indicator: TA100, Metabolic Activation: NONE, Method: STANDARD PLATE
# [3] = Test System: AMES SALMONELLA TYPHIMURIUM, Strain/Indicator: TA100, Metabolic Activation: RAT, LIVER, S-9, Method: STANDARD PLATE
structure (smiles),measurement,setting,value
O=[N+]([O-])c1ccc2c([N+](=O)[O-])cc3ccccc3c2c1,mutagenic call,"Test System: AMES SALMONELLA TYPHIMURIUM, Strain/Indicator: TA98(1,8-DNP6), Metabolic Activation: NONE, Method: STANDARD PLATE",active; positive
same,mutagenic call,"Test System: AMES SALMONELLA TYPHIMURIUM, Strain/Indicator: TA98(NR), Metabolic Activation: NONE, Method: STANDARD PLATE",active; positive
same,mutagenic call,[1],active; positive
same,mutagenic call,[2],active; positive
same,mutagenic call,"Test System: AMES SALMONELLA TYPHIMURIUM, Strain/Indicator: YG1021, Metabolic Activation: NONE, Method: STANDARD PLATE",active; positive
same,mutagenic call,"Test System: AMES SALMONELLA TYPHIMURIUM, Strain/Indicator: YG1024, Metabolic Activation: NONE, Method: STANDARD PLATE",active; positive
same,mutagenic call,"Test System: AMES SALMONELLA TYPHIMURIUM, Strain/Indicator: YG1026, Metabolic Activation: NONE, Method: STANDARD PLATE",active; positive
same,mutagenic call,"Test System: AMES SALMONELLA TYPHIMURIUM, Strain/Indicator: YG1029, Metabolic Activation: NONE, Method: STANDARD PLATE",active; positive
CC(C)=CC1C(C(=O)OC(C#N)c2cccc(Oc3ccccc3)c2)C1(C)C (centres undefined),mutagenic call,"Test System: Ames Salmonella typhimurium, Strain/Indicator: TA98, Metabolic Activation: None, Method: Preincubation",inactive; negative
same,mutagenic call,"Test System: Ames Salmonella typhimurium, Strain/Indicator: TA98, Metabolic Activation: Rat, liver, S-9, Method: Preincubation",inactive; negative
same,mutagenic call,"Test System: Ames Salmonella typhimurium, Strain/Indicator: TA100, Metabolic Activation: None, Method: Preincubation",inactive; negative
same,mutagenic call,"Test System: Ames Salmonella typhimurium, Strain/Indicator: TA100, Metabolic Activation: Rat, liver, S-9, Method: Preincubation",inactive; negative
same,mutagenic call,"Test System: Ames Salmonella typhimurium, Strain/Indicator: TA1535, Metabolic Activation: None, Method: Preincubation",inactive; negative
same,mutagenic call,"Test System: Ames Salmonella typhimurium, Strain/Indicator: TA1535, Metabolic Activation: Rat, liver, S-9, Method: Preincubation",inactive; negative
same,mutagenic call,"Test System: Ames Salmonella typhimurium, Strain/Indicator: TA1537, Metabolic Activation: None, Method: Preincubation",inactive; negative
same,mutagenic call,"Test System: Ames Salmonella typhimurium, Strain/Indicator: TA1537, Metabolic Activation: Rat, liver, S-9, Method: Preincubation",inactive; negative
same,mutagenic call,"Test System: Ames Salmonella typhimurium, Strain/Indicator: TA1538, Metabolic Activation: None, Method: Preincubation",inactive; negative
same,mutagenic call,"Test System: Ames Salmonella typhimurium, Strain/Indicator: TA1538, Metabolic Activation: Rat, liver, S-9, Method: Preincubation",inactive; negative
same,mutagenic call,"Test System: E. coli, Strain/Indicator: WP-2 uvrA, Metabolic Activation: None, Method: Preincubation",inactive; negative
same,mutagenic call,"Test System: E. coli, Strain/Indicator: WP-2 uvrA, Metabolic Activation: Rat, liver, S-9, Method: Preincubation",inactive; negative
O=C(O)C1CCCN1 (centres undefined),mutagenic call,"Test System: AMES SALMONELLA TYPHIMURIUM, Strain/Indicator: TA98, Metabolic Activation: RAT LIVER S-9, CHLOROPHENE, Method: STANDARD PLATE (COMPOUND HEATED AT 250 DEGREES CELSIUS FOR 20 MIN)",active; positive
Fc1cccc2cccnc12,mutagenic call,"End Point: In vitro chromosomal aberrations, Test System: Chinese hamster lung fibroblast cells (CHL/IU), Metabolic Activation: Rat, Liver, S-9","active; positive, described as marginally clastogenic at nontoxic doses. (information de"
same,mutagenic call,"End Point: In vitro micronucleus, Test System: Chinese hamster lung fibroblast cells (CHL/IU), Metabolic Activation: Rat, Liver, S-9","inactive; negative, cytotoxic at 0.2 mg/ml. (information derived from a figure)"
same,mutagenic call,"Test System: AMES SALMONELLA TYPHIMURIUM, Strain/Indicator: TA100, Metabolic Activation: RAT LIVER S-9, PHENOBARBITAL AND 5,6-BENZOFLAVONE, Method: PREINCUBATION",active; positive
same,mutagenic call,"Test System: AMES SALMONELLA TYPHIMURIUM, Strain/Indicator: TA100, Metabolic Activation: RAT, LIVER, S-9, AROCLOR 1254, Method: PREINCUBATION",active; positive
same,mutagenic call,"Test System: AMES SALMONELLA TYPHIMURIUM, Strain/Indicator: TA100, Metabolic Activation: RAT, LIVER, S-9, PHENOBARBITAL AND 5,6-BENZOFLAVONE, Method: PREINCUBATION",active; positive
same,mutagenic call,"Test System: AMES SALMONELLA TYPHIMURIUM, Strain/Indicator: TA100, Metabolic Activation: RAT, LIVER, S-9, PHENOBARBITAL AND 5,6-NAPHTHOFLAVONE, Method: PREINCUBATION",active; positive
same,mutagenic call,"Test System: AMES SALMONELLA TYPHIMURIUM, Strain/Indicator: TA100, Metabolic Activation: S-9, Method: PREINCUBATION",active; positive
same,mutagenic call,"Test System: UDS RODENT HEPATOCYTES, Strain/Indicator: THY INCORP (NON-S-PHASE), Metabolic Activation: NONE, Method: AUTORADIOGRAPHY",active; positive
CCOP(=O)(Oc1ccc([N+](=O)[O-])cc1)c1ccccc1 (centres undefined),mutagenic call,[1],active; positive
same,mutagenic call,"Test System: AMES SALMONELLA TYPHIMURIUM, Strain/Indicator: TA98, Metabolic Activation: RAT, LIVER, S-9, Method: STANDARD PLATE",inactive; negative
same,mutagenic call,[2],inactive; negative
same,mutagenic call,[3],inactive; negative
CNC(=O)C(C)SCCSP(=O)(OC)OC (centres undefined),mutagenic call,"Test System: E. COLI, Strain/Indicator: WP2, Metabolic Activation: NONE, Method: STANDARD PLATE",active; positive
same,mutagenic call,"Test System: E. COLI, Strain/Indicator: WP2 UVRA, Metabolic Activation: NONE, Method: STANDARD PLATE",active; positive
Cl/C=C(\Cl)COCCCl,mutagenic call,"Test System: AMES SALMONELLA TYPHIMURIUM, Strain/Indicator: TA100, Metabolic Activation: RAT, LIVER, S-9, 3-METHYLCHOLANTHRENE, Method: STANDARD PLATE",inactive; negative
same,mutagenic call,"Test System: AMES SALMONELLA TYPHIMURIUM, Strain/Indicator: TA100, Metabolic Activation: RAT, LIVER, S-9, AROCLOR 1254, Method: STANDARD PLATE",active; positive
same,mutagenic call,"Test System: AMES SALMONELLA TYPHIMURIUM, Strain/Indicator: TA100, Metabolic Activation: RAT, LIVER, S-9, PHENOBARBITAL, Method: STANDARD PLATE",active; positive
same,mutagenic call,[3],inactive; negative
Cc1cc2cc3ccccc3cc2c2ccccc12,mutagenic call,"Test System: AMES SALMONELLA TYPHIMURIUM, Strain/Indicator: TA100, Metabolic Activation: RAT, INTACT HEPATOCYTES, AROCLOR 1254, Method: PREINCUBATION",active; positive
same,mutagenic call,"Test System: AMES SALMONELLA TYPHIMURIUM, Strain/Indicator: TA100, Metabolic Activation: RAT, NADPH-FORTIFIED HOMOGENIZED HEPATOCYTES, AROCLOR 1254, Method: PREINCUBATION",active; positive
same,mutagenic call,"Test System: AMES SALMONELLA TYPHIMURIUM, Strain/Indicator: TA100, Metabolic Activation: RAT, SONICATED HEPATOCYTES, AROCLOR 1254, Method: PREINCUBATION",active; positive
Cc1ccccc1NC(=O)c1csc([N+](=O)[O-])c1,mutagenic call,[1],active; positive
same,mutagenic call,[2],active; positive
CCCC(=O)OC1CCCCC1,mutagenic call,"Test System: AMES SALMONELLA TYPHIMURIUM, Strain/Indicator: TA97, Metabolic Activation: NONE, Method: PREINCUBATION",inactive; negative
same,mutagenic call,"Test System: AMES SALMONELLA TYPHIMURIUM, Strain/Indicator: TA97, Metabolic Activation: RAT, LIVER, S-9, AROCLOR 1254, Method: PREINCUBATION",inactive; negative
same,mutagenic call,"Test System: AMES SALMONELLA TYPHIMURIUM, Strain/Indicator: TA102, Metabolic Activation: NONE, Method: PREINCUBATION",inactive; negative
same,mutagenic call,"Test System: AMES SALMONELLA TYPHIMURIUM, Strain/Indicator: TA102, Metabolic Activation: RAT, LIVER, S-9, AROCLOR 1254, Method: PREINCUBATION",inactive; negative
COc1ccc2c(c1)-c1nccc3cc(OC)c(O)c(c13)C2=O,mutagenic call,"Test System: AMES SALMONELLA TYPHIMURIUM, Strain/Indicator: TA98, Metabolic Activation: RAT, LIVER, S-9, PHENOBARBITAL AND BETA-NAPHTHOFLAVONE, Method: PREINCUBATION",active; positive
